Laboratory results reported in PubChem BioAssay (NCI).
“And” between values parts separate entries of the source, which are not always exact repeats. Equal values may be shown once.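 Compound exposure: 48 hours, 5 concentrations, 96-well plates. GI50 marks 50% less growth. TGI is the concentration that stops growth completely.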

Assays:
Assay in all cases: DTP human tumour cell line panel, 48 h
[1] = tested on: A498 renal
[2] = tested on: RPMI-8226 leukemia
[3] = tested on: SK-MEL-28 melanoma
[4] = tested on: HT29 colon
[5] = tested on: SF-295 CNS
[6] = tested on: PC-3 prostate
[7] = tested on: COLO 205 colon
[8] = tested on: A549 NSCLC
[9] = tested on: SK-MEL-2 melanoma
[10] = tested on: CCRF-CEM leukemia

Cn1ccc2c(NCCN)c3c(c(NCCN)c21)C(=O)c1ccccc1C3=O
GI50 [1]: 2.31 µM | TGI [1]: 4.87 µM | GI50 [2]: 0.455 µM | GI50 [3]: 15.6 µM | TGI [3]: 36.7 µM | GI50 [4]: 7.77 µM | TGI [4]: > 44.8 µM | GI50 [5]: 0.968 µM | TGI [5]: 5.77 µM | GI50 [6]: 0.494 µM | TGI [6]: 3.18 µM | GI50 [7]: 24.4 µM | TGI [7]: 68.4 µM | GI50 [8]: 2.83 µM | TGI [8]: 12.1 µM | GI50 [9]: 2.33 µM | TGI [9]: 11.5 µM | GI50 [10]: 0.371 µM

COc1ccccc1C1=C2C(=O)N(C)C(c3ccccc3OC)=C2C(=O)N1C
TGI [1]: > 100 µM | TGI [3]: > 100 µM | TGI [4]: > 100 µM | TGI [5]: > 100 µM | TGI [6]: > 100 µM | TGI [7]: > 100 µM | TGI [8]: > 100 µM | TGI [10]: > 100 µM

CC1(C)NCCC[C@]2(C)[C@H]3C=CC4=C5C[C@](C)(CO)CC[C@]5(C)CC[C@@]4(C)[C@]3(C)CC[C@@H]12
GI50 [1]: 11.4 µM | TGI [1]: 24.5 µM | GI50 [2]: 3.91 µM | TGI [2]: 14.9 µM | GI50 [3]: 5.87 µM | TGI [3]: 18.4 µM | GI50 [4]: 3.25 µM | TGI [4]: 13.8 µM | GI50 [5]: 2 µM | TGI [5]: 4.04 µM | GI50 [6]: 3.05 µM | TGI [6]: 12.3 µM | GI50 [7]: 3.63 µM | TGI [7]: 13.9 µM | GI50 [8]: 1.89 µM | TGI [8]: 3.71 µM | GI50 [9]: 3.31 µM | TGI [9]: 12.2 µM | GI50 [10]: 3.52 µM | TGI [10]: 14.6 µM

O=C1C(Cl)=C(Oc2ccc([N+](=O)[O-])cc2)C(=O)c2c(O)ccc(O)c21
TGI [1]: > 100 µM | TGI [2]: > 60.1 µM | TGI [3]: > 76.2 µM | TGI [4]: > 83.1 µM | TGI [5]: > 100 µM | TGI [6]: > 100 µM | TGI [7]: 42.3 µM | TGI [8]: > 100 µM | TGI [10]: 12.9 µM

CC1(C)OC[C@@H]([C@@]2(CO[Si](C)(C)C(C)(C)C)CC=CC(=O)O2)O1
GI50 [1]: 18.6 µM | TGI [1]: 36.1 µM | GI50 [2]: 24.2 µM | TGI [2]: 80.5 µM | GI50 [3]: 21.8 µM | TGI [3]: 48.9 µM | GI50 [4]: 34.5 µM | TGI [4]: > 100 µM | GI50 [5]: 19.6 µM | TGI [5]: 42 µM | GI50 [6]: 19.6 µM | TGI [6]: 74.2 µM | GI50 [7]: 33.5 µM | TGI [7]: > 100 µM | GI50 [8]: 16.7 µM | TGI [8]: 47.5 µM | GI50 [9]: 40.4 µM | TGI [9]: > 100 µM | GI50 [10]: 26.2 µM | TGI [10]: > 100 µM

O=[N+]([O-])c1ccc(-c2nc(N(CCO)CCO)c3ccccc3n2)o1
GI50 [1]: 0.119 µM | TGI [1]: 0.255 µM | GI50 [2]: 0.567 µM | TGI [2]: > 21.3 µM | GI50 [3]: 0.877 µM | TGI [3]: 2.41 µM | GI50 [4]: 0.184 µM | TGI [4]: 3.07 µM | GI50 [5]: 0.192 µM | TGI [5]: 1.03 µM | GI50 [6]: 0.293 µM | TGI [6]: 2.84 µM | GI50 [7]: 0.118 µM | TGI [7]: 0.264 µM | GI50 [8]: 0.128 µM | TGI [8]: 0.822 µM | GI50 [9]: 0.158 µM | TGI [9]: 0.361 µM | GI50 [10]: 1.14 µM | TGI [10]: 64.1 µM

CCCCCNC(=O)[C@@H]1CCCN2C(=O)CC[C@H](NC(=O)[C@H](Cc3ccc(OP(=O)(O)O)cc3)NC(C)=O)C(=O)N12
GI50 [1]: > 25 µM | TGI [1]: > 25 µM | GI50 [2]: > 25 µM | TGI [2]: > 25 µM | GI50 [3]: > 25 µM | TGI [3]: > 25 µM | GI50 [4]: > 25 µM | TGI [4]: > 25 µM | GI50 [5]: > 25 µM | TGI [5]: > 25 µM | GI50 [6]: > 25 µM | TGI [6]: > 25 µM | GI50 [7]: > 25 µM | TGI [7]: > 25 µM | GI50 [8]: > 25 µM | TGI [8]: > 25 µM | GI50 [9]: > 25 µM | TGI [9]: > 25 µM | GI50 [10]: > 25 µM | TGI [10]: > 25 µM

O=C1/C(=C/c2ccc(O)c([N+](=O)[O-])c2)CCC/C1=C\c1ccc(O)c([N+](=O)[O-])c1
TGI [1]: 13.1 µM | GI50 [2]: 10 µM | TGI [2]: 50 µM and 32.6 µM | GI50 [3]: 19.9 µM | TGI [3]: 20.3 µM and 45 µM | GI50 [4]: 19 µM | TGI [4]: 30.7 µM and 37.6 µM | TGI [5]: 50 µM and > 100 µM | GI50 [6]: 9.12 µM | TGI [6]: 50 µM and 22.8 µM | GI50 [7]: 20.8 µM | TGI [7]: 31.9 µM and 40.6 µM | GI50 [8]: 25.5 µM | TGI [8]: 32.4 µM and 91.7 µM | GI50 [9]: 13 µM | TGI [9]: 32.2 µM and 27.2 µM | GI50 [10]: 14.9 µM | TGI [10]: 50 µM and 56.2 µM

FC(F)(F)c1cccc(COCCN2CCN(Cc3cccc(C(F)(F)F)c3)CC2)c1
TGI [1]: 28.8 µM | TGI [3]: 34.6 µM | TGI [4]: 44.6 µM | TGI [5]: 37.5 µM | TGI [6]: 21.7 µM | TGI [7]: 42.3 µM | TGI [8]: 30.9 µM | TGI [10]: 46.6 µM

CC([C@H]1CCC2C3CCC4C[C@@H](NC=O)CC[C@]4(C)C3CC[C@@]21C)N(C)C (stereo partly specified)
GI50 [1]: 2.51 µM | TGI [1]: 11.9 µM | GI50 [2]: 1.91 µM | TGI [2]: 6.6 µM | GI50 [3]: 1.65 µM | TGI [3]: 3.08 µM | GI50 [4]: 0.595 µM | TGI [4]: 2.42 µM | GI50 [5]: 2.14 µM | TGI [5]: 5.58 µM | GI50 [6]: 2.47 µM | TGI [6]: 16.4 µM | GI50 [7]: 1.54 µM | TGI [7]: 3.11 µM | GI50 [8]: 3.32 µM | TGI [8]: 11.5 µM | GI50 [9]: 5.71 µM | TGI [9]: 13.8 µM | GI50 [10]: 2.31 µM | TGI [10]: 10.9 µM

c1ccc(C(=NNc2nc3ccccc3o2)c2ccccn2)nc1
GI50 [1]: 0.117 µM | TGI [1]: 0.834 µM and 6.5 µM | GI50 [2]: 0.047 µM | GI50 [3]: 0.124 µM | TGI [3]: 48.6 µM | GI50 [4]: < 0.0361 µM | TGI [4]: > 66.8 µM and 12.7 µM | TGI [5]: 12.6 µM and 3.7 µM | GI50 [6]: 0.0436 µM | TGI [6]: 26.6 µM and 13.8 µM | GI50 [7]: 0.0194 µM | TGI [7]: 14.4 µM | GI50 [8]: 0.108 µM | TGI [8]: > 34.5 µM and 16.5 µM | GI50 [9]: 0.465 µM | TGI [9]: 28.8 µM and 27.1 µM | GI50 [10]: 0.033 µM

Nc1ccc(C(=O)c2ccc(N)c(Br)c2)cc1Br
GI50 [1]: 0.277 µM | TGI [1]: 3.95 µM | GI50 [2]: 0.346 µM | TGI [2]: 3.73 µM | GI50 [3]: 1.09 µM | TGI [3]: > 100 µM | GI50 [4]: 0.335 µM | TGI [4]: 1.18 µM | GI50 [5]: 0.228 µM | TGI [5]: 0.664 µM | GI50 [6]: 0.392 µM | TGI [6]: > 63.4 µM | GI50 [7]: 0.393 µM | TGI [7]: 2.2 µM | GI50 [8]: 0.494 µM | TGI [8]: 31.3 µM | GI50 [9]: 0.435 µM | TGI [9]: 3.99 µM | GI50 [10]: 0.483 µM | TGI [10]: > 100 µM

OCC(O)C(O)C(O)C1SC(c2ccccc2)=NN1c1ccccc1 (stereo unspecified)
TGI [1]: > 100 µM | TGI [2]: > 100 µM | TGI [3]: > 100 µM | TGI [4]: > 100 µM | TGI [5]: > 100 µM | TGI [6]: > 100 µM | TGI [7]: > 100 µM | TGI [8]: > 100 µM | TGI [9]: 93.2 µM | TGI [10]: > 100 µM

CC(=O)Nc1nc(SCc2ccccc2)c2ncn(C(C)=O)c2n1
GI50 [1]: 30.9 µM | TGI [1]: > 100 µM | GI50 [2]: 55.6 µM | TGI [2]: > 100 µM | GI50 [3]: > 100 µM | TGI [3]: > 100 µM | GI50 [4]: 63.4 µM | TGI [4]: > 100 µM | GI50 [5]: 66.1 µM | TGI [5]: > 100 µM | GI50 [6]: 72.2 µM | TGI [6]: > 100 µM | GI50 [7]: > 100 µM | TGI [7]: > 100 µM | GI50 [8]: > 100 µM | TGI [8]: > 100 µM | GI50 [10]: > 100 µM | TGI [10]: > 100 µM
